The subject of the assay is L1210 leukemia ip in BDF1 mice, survival T/C. The assay is described as follows: NCI In Vivo Anticancer Drug Screen. Data for tumor model L1210 Leukemia (intraperitoneal) in B6D2F1 (BDF1) mice. The note with it: endpoint: mean survival time, higher = longer survival. The method in brief: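 Value reflects the ratio of survival in compound-treated mice to survival in vehicle-treated controls, with both groups carrying the same transplanted tumor.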

Setting [1] is: dose: 100.0 mg/kg/injection, schedule: Q04DX003 (ip), vehicle: Klucel (hydroxypropylcellulose) (HPC).
Setting [2] is: dose: 200.0 mg/kg/injection, schedule: Q04DX003 (ip), vehicle: Klucel (hydroxypropylcellulose) (HPC).
The mark [3] stands for this setting: dose: 400.0 mg/kg/injection, schedule: Q04DX003 (ip), vehicle: Klucel (hydroxypropylcellulose) (HPC).
Where [4] appears, read: dose: 100.0 mg/kg/injection, schedule: Q01DX009 (ip), vehicle: Klucel (hydroxypropylcellulose) (HPC).
Where [5] appears, read: dose: 200.0 mg/kg/injection, schedule: Q01DX009 (ip), vehicle: Klucel (hydroxypropylcellulose) (HPC).
The mark [6] stands for this setting: dose: 400.0 mg/kg/injection, schedule: Q01DX009 (ip), vehicle: Klucel (hydroxypropylcellulose) (HPC).
Setting [7] is: dose: 100.0 mg/kg/injection, schedule: Q01DX001 (ip), vehicle: saline.
Setting [8] is: dose: 200.0 mg/kg/injection, schedule: Q01DX001 (ip), vehicle: saline.
The mark [9] stands for this setting: dose: 400.0 mg/kg/injection, schedule: Q01DX001 (ip), vehicle: saline.
Setting [10] is: dose: 100.0 mg/kg/injection, schedule: Q01DX001 (ip), vehicle: Klucel (hydroxypropylcellulose) (HPC).
[11] abbreviates: dose: 200.0 mg/kg/injection, schedule: Q01DX001 (ip), vehicle: Klucel (hydroxypropylcellulose) (HPC).
Setting [12] is: dose: 400.0 mg/kg/injection, schedule: Q01DX001 (ip), vehicle: Klucel (hydroxypropylcellulose) (HPC).
The mark [13] stands for this setting: dose: 300.0 mg/kg/injection, schedule: Q01DX001 (ip), vehicle: saline.

The record followed here is PubChem BioAssay AID248 (DTP/NCI, 2004).

SMILES strings stand for the structures. Where “and” joins values, the source holds several entries; their conditions need not be identical. Identical values can stand only once. Inconclusive results and toxic doses are left out.

With `O=C(Nc1ccc(Cc2ccc(NC(=O)Nc3cccc(C4=NCCN4)c3)cc2)cc1)Nc1cccc(C2=NCCN2)c1`, the T/C (dose: 111.0 mg/kg/injection, schedule: Q01DX Z (ip), vehicle: carboxymethylcellulose (CMC)) was 101 % of control; the T/C (dose: 120.0 mg/kg/injection, schedule: Q01DX Z (ip), vehicle: carboxymethylcellulose (CMC)) was 98 % of control; the T/C (dose: 166.0 mg/kg/injection, schedule: Q01DX Z (ip), vehicle: carboxymethylcellulose (CMC)) was 101 % of control; the T/C (dose: 180.0 mg/kg/injection, schedule: Q01DX Z (ip), vehicle: carboxymethylcellulose (CMC)) is 98 % of control; the T/C (dose: 250.0 mg/kg/injection, schedule: Q01DX Z (ip), vehicle: carboxymethylcellulose (CMC)) is 107 % of control; the T/C (dose: 270.0 mg/kg/injection, schedule: Q01DX Z (ip), vehicle: carboxymethylcellulose (CMC)) is 101 % of control. Further, the T/C was 107 % of control (dose: 375.0 mg/kg/injection, schedule: Q01DX Z (ip), vehicle: carboxymethylcellulose (CMC)) and 100 % of control (dose: 405.0 mg/kg/injection, schedule: Q01DX Z (ip), vehicle: carboxymethylcellulose (CMC)).
For the molecule `Cc1nc(N)[nH]c(=O)c1N`, the T/C by setting is: (dose: 75.0 mg/kg/injection, schedule: Q01DX001 (ip), vehicle: saline with Tween-80) 106 % of control; under setting [1], 100 % of control; (dose: 150.0 mg/kg/injection, schedule: Q01DX001 (ip), vehicle: saline with Tween-80) 101 % of control; under setting [2], 96 % of control; (dose: 300.0 mg/kg/injection, schedule: Q01DX001 (ip), vehicle: saline with Tween-80) 103 % of control; under setting [3], 92 % of control.
For `COc1ccc(C)cc1NC(=O)Nc1cc(C(F)(F)F)ccc1Cl`, the T/C reads like this: under setting [4], 88 % of control; under setting [5], 95 % of control; under setting [6], 90 % of control.
For the molecule `CNC(=O)NC1CCC(C)CC1` (stereo not given), the T/C by setting is: under setting [7], 95 % of control; under setting [8], 95 % of control; under setting [9], 97 % of control.
Take `CCN(CC)CCOC(=S)Nc1ccccc1`: the T/C runs as follows: (dose: 25.0 mg/kg/injection, schedule: Q01DX009 (ip), vehicle: saline) 100 % of control; (dose: 50.0 mg/kg/injection, schedule: Q01DX009 (ip), vehicle: saline) 109 % of control; (dose: 100.0 mg/kg/injection, schedule: Q01DX009 (ip), vehicle: saline) 96 % of control and 105 % of control.
In the case of `Nc1nc(N)c2nc(CNc3ccc(C(=O)NC(CCCCC(=O)O)C(=O)O)cc3)cnc2n1` (stereo not given), the T/C (dose: 20.0 mg/kg/injection, schedule: Q01DX009 (ip), vehicle: sodium bicarbonate) was 157 % of control.
Turning to `CC1Oc2ccccc2OC1CN1CCC2(CC1)C(=O)N(C)CN2c1ccccc1` (stereo not given), the T/C is, setting by setting: under setting [10], 88 % of control; under setting [11], 99 % of control; under setting [12], 86 % of control.
On to `CC(C)(CO)C(=O)O`, for which the T/C was 101 % of control under setting [7], 98 % of control under setting [8] and 106 % of control under setting [9].
As to `CC(C)(Br)C(=O)C(C)(C)Br`, the T/C (dose: 75.0 mg/kg/injection, schedule: Q01DX001 (ip), vehicle: saline) is 93 % of control; the T/C under setting [4] was 103 % of control; the T/C (dose: 150.0 mg/kg/injection, schedule: Q01DX001 (ip), vehicle: saline) is 96 % of control; the T/C under setting [5] is 100 % of control; the T/C under setting [13] is 92 % of control; the T/C under setting [6] was 91 % of control.
`Nc1cc(NCc2ccccc2)nc(=O)[nH]1`: the T/C (dose: 100.0 mg/kg/injection, schedule: Q01DX001 (ip), vehicle: gum acacia) is 97 % of control; the T/C (dose: 200.0 mg/kg/injection, schedule: Q01DX001 (ip), vehicle: gum acacia) is 95 % of control; the T/C (dose: 400.0 mg/kg/injection, schedule: Q01DX001 (ip), vehicle: gum acacia) is 101 % of control.
Consider `O=C1OC(c2ccccc2)CC1NCc1ccccc1` (stereo not given), for which the T/C under setting [10] was 98 % of control, the T/C under setting [11] was 101 % of control and the T/C under setting [12] was 96 % of control.
On to `COc1cc(Cc2nccc3cc(OC)c(OC)cc23)c([N+](=O)[O-])cc1OC`, for which the T/C reads like this: under setting [7], 102 % of control; (dose: 100.0 mg/kg/injection, schedule: Q04DX003 (ip), vehicle: saline sonified) 106 % of control; under setting [8], 96 % of control; (dose: 200.0 mg/kg/injection, schedule: Q04DX003 (ip), vehicle: saline sonified) 89 % of control; under setting [13], 96 % of control; (dose: 400.0 mg/kg/injection, schedule: Q04DX003 (ip), vehicle: saline sonified) 92 % of control.
Consider `O=P(c1ccccc1)(c1ccccc1)N1CC1c1ccccc1` (stereo not given), for which the T/C is 96 % of control (dose: 75.0 mg/kg/injection, schedule: Q01DX001 (ip), vehicle: carboxymethylcellulose (CMC)); 95 % of control (dose: 150.0 mg/kg/injection, schedule: Q01DX001 (ip), vehicle: carboxymethylcellulose (CMC)); 90 % of control (dose: 300.0 mg/kg/injection, schedule: Q01DX001 (ip), vehicle: carboxymethylcellulose (CMC)).
Regarding `CC1(CCCOc2ccc(NC(=O)CBr)cc2)N=C(N)N=C(N)N1c1ccccc1` (stereo not given), the T/C by setting is: (dose: 5.0 mg/kg/injection, schedule: Q01DX001 (ip), vehicle: saline) 97 % of control; (dose: 10.0 mg/kg/injection, schedule: Q01DX001 (ip), vehicle: saline) 92 % of control; (dose: 20.0 mg/kg/injection, schedule: Q01DX001 (ip), vehicle: saline) 91 % of control; (dose: 40.0 mg/kg/injection, schedule: Q01DX001 (ip), vehicle: saline) 91 % of control; (dose: 80.0 mg/kg/injection, schedule: Q01DX001 (ip), vehicle: saline) 87 % of control.
With `CS(=O)(=O)c1ccc(C(O)C(CO)NC(=O)C(Cl)Cl)cc1` (stereo not given), the T/C (dose: 100.0 mg/kg/injection, schedule: Q04DX002 (ip), vehicle: Klucel (hydroxypropylcellulose) (HPC)) is 96 % of control; the T/C (dose: 200.0 mg/kg/injection, schedule: Q04DX002 (ip), vehicle: Klucel (hydroxypropylcellulose) (HPC)) is 93 % of control; the T/C (dose: 400.0 mg/kg/injection, schedule: Q04DX002 (ip), vehicle: Klucel (hydroxypropylcellulose) (HPC)) was 90 % of control.
With `CN(C(=O)NCCCl)C1CCC(C(=O)O)CC1` (stereo not given), the T/C reads like this: under setting [10], 92 % of control; under setting [11], 88 % of control.
As for `CC(=O)Nc1ccc(/C=C/c2cc[n+](C)cc2)cc1`, the T/C was 97 % of control (dose: 100.0 mg/kg/injection, schedule: Q04DX003 (ip), vehicle: saline with Tween-80); 111 % of control (dose: 200.0 mg/kg/injection, schedule: Q04DX003 (ip), vehicle: saline with Tween-80); 102 % of control (dose: 400.0 mg/kg/injection, schedule: Q04DX003 (ip), vehicle: saline with Tween-80).
For `COc1c([N+](=O)[O-])cc2c(c1C)OCOC2`, the T/C reads like this: (dose: 12.5 mg/kg/injection, schedule: Q01DX009 (ip), vehicle: Klucel (hydroxypropylcellulose) (HPC)) 95 % of control; (dose: 25.0 mg/kg/injection, schedule: Q01DX009 (ip), vehicle: Klucel (hydroxypropylcellulose) (HPC)) 95 % of control; (dose: 50.0 mg/kg/injection, schedule: Q01DX009 (ip), vehicle: Klucel (hydroxypropylcellulose) (HPC)) 95 % of control; under setting [10], 92 % of control; under setting [11], 93 % of control; under setting [12], 102 % of control.
For the molecule `CCCCCCCCCCCCCCCCS(=O)(=O)c1ccc(S(=O)(=O)CS(C)(=O)=O)cc1[N+](=O)[O-]`, the T/C reads like this: (dose: 100.0 mg/kg/injection, schedule: Q01DX001 (ip), vehicle: other) 98 % of control; (dose: 200.0 mg/kg/injection, schedule: Q01DX001 (ip), vehicle: other) 91 % of control.
For `C=CCS(=O)(=O)c1ccc(C)cc1`, the T/C runs as follows: under setting [1], 102 % of control; under setting [2], 100 % of control; under setting [3], 100 % of control.
